# From ChEMBL document CHEMBL2311255, “Discovery of alkenylboronic acids as neuroprotective agents affecting multiple biological targets involved in Alzheimer's disease” (Bioorg Med Chem Lett, 2013)
# The source made the active and inactive calls. The rule behind the calls is not given here.
# Assays:
# SH-SY5Y [1] = assay: Neuroprotective activity in human APP695-transfected SH-SY5Y cells assessed as decrease of H2O2-induced malondialdehyde level after 16 hrs (reference value: 67.83 +/- 5.86 nmol/mg); format: functional
# [2] = Cytotoxicity against human APP695-transfected SH-SY5Y cells at 10 uM after 24 hrs by MTT assay; format: cell-based
# Acetylcholinesterase = assay: Inhibition of AChE (unknown origin) measured for 3 mins by Ellman colorimetric method; details: Homo sapiens
# SH-SY5Y [3] = assay: Neuroprotective activity in human APP695-transfected SH-SY5Y cells assessed as GSH-glutathione disulfide level after 16 hrs (reference value: 4.71 +/- 0.48 nmol/mg); format: functional
# SH-SY5Y [4] = assay: Neuroprotective activity in human APP695-transfected SH-SY5Y cells assessed as decrease of malondialdehyde level after 16 hrs (reference value: 52 +/- 1.84 nmol/mg); format: functional
# SH-SY5Y [5] = assay: Neuroprotective activity in human APP695-transfected SH-SY5Y cells assessed as inhibition of ROS production at 5 uM after 60 mins by DCFA-DA assay; format: functional, cell-based
# SH-SY5Y [6] = assay: Neuroprotective activity in human APP695-transfected SH-SY5Y cells assessed as inhibition of H2O2-induced decrease in glutathione level after 16 hrs (reference value: 22.95 +/- 0.59 nmol/mg); format: functional
# SH-SY5Y [7] = assay: Neuroprotective activity in human APP695-transfected SH-SY5Y cells assessed as increase of glutathione level after 16 hrs (reference value: 17.79 +/- 1.59 nmol/mg); format: functional
# SH-SY5Y [8] = assay: Neuroprotective activity in human APP695-transfected SH-SY5Y cells assessed as inhibition of H2O2-induced ROS production at 5 uM after 60 mins by DCFA-DA assay; format: functional; details: 1 h
# SH-SY5Y [9] = assay: Neuroprotective activity in human APP695-transfected SH-SY5Y cells assessed as H2O2-induced GSH-glutathione disulfide level after 16 hrs (reference value: 6.85 +/- 0.92 nmol/mg); format: functional
# SH-SY5Y [10] = assay: Neuroprotective activity in human APP695-transfected SH-SY5Y cells assessed as inhibition of H2O2-induced increase of caspase-3 activity after 60 mins by fluorescence assay; format: functional
# [11] = target: Amyloid-beta precursor protein (Homo sapiens) (UniProt P05067); assay: Inhibition of beta amyloid (25 to 35) (unknown origin) aggregation after 4 days by thioflavin-T fluorescence analysis
# SH-SY5Y [12] = assay: Neuroprotective activity in human APP695-transfected SH-SY5Y cells assessed as inhibition of H2O2-induced ROS production after 60 mins by DCFA-DA assay; format: functional, cell-based; details: 1 h
# [13] = target: Amyloid-beta precursor protein (Homo sapiens) (UniProt P05067); assay: Inhibition of beta amyloid (25 to 35) (unknown origin) disaggregation after 4 days by thioflavin-T fluorescence analysis
# Beta-secretase 1 = Beta-secretase 1 (Homo sapiens, UniProt P56817); assay: Inhibition of human recombinant BACE using H-RE-(EDANS)EVNLDAEFK(DABCYL)R-OH as substrate preincubated for 1 hr before addition of substrate measured after 1 hr
# Beta-secretase 1, sequence (P56817 whole entry): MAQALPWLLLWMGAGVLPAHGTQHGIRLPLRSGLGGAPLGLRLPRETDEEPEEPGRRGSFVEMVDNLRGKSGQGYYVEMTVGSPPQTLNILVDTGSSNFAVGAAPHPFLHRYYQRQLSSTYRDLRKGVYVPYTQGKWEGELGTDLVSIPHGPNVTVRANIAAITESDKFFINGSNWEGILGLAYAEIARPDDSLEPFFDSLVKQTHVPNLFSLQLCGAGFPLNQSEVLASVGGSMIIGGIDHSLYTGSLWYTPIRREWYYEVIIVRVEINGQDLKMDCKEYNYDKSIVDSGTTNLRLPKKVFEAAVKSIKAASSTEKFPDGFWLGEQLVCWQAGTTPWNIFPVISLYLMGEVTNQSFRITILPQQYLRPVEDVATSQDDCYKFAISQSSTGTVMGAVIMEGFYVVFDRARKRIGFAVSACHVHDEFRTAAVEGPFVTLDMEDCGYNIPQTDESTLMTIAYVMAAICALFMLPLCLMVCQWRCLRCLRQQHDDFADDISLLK
# Amyloid-beta precursor protein (Homo sapiens), sequence (P05067 whole entry): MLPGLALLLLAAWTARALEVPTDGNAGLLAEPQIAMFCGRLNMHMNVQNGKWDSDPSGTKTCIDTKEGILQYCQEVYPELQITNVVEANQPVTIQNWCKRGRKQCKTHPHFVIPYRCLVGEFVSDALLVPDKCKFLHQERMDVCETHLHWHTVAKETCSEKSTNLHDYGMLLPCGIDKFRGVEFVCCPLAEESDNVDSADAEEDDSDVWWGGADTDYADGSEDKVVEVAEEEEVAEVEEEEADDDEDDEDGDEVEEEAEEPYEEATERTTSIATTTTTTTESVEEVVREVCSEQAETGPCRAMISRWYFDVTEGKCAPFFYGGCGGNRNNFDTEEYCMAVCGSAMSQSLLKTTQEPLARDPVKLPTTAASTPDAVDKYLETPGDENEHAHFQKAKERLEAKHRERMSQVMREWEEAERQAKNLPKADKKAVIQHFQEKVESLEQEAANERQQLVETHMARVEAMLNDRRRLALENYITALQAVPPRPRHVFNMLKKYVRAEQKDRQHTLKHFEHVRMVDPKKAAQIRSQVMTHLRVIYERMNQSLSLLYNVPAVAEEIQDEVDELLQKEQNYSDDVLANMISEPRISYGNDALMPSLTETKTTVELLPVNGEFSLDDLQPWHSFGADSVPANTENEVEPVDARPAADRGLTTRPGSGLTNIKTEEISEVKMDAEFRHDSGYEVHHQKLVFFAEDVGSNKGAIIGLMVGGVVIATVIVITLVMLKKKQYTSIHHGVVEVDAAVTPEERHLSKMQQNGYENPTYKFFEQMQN
smiles,measurement,setting,value
CCCCC/C=C/B(O)O,Activity,SH-SY5Y [1],59.21 nmol/mg
same,Activity,[2],Non-toxic
same,inhibition,Acetylcholinesterase,inactive
same,Activity,SH-SY5Y [3],4.65 nmol/mg
same,Activity,SH-SY5Y [4],40.34 nmol/mg
same,inhibition,SH-SY5Y [5],inactive
same,Activity,SH-SY5Y [6],27.22 nmol/mg
same,Activity,SH-SY5Y [7],27.35 nmol/mg
same,inhibition at 5 µM,SH-SY5Y [8],< 50%
same,Activity,SH-SY5Y [9],3.94 nmol/mg
OB(O)/C=C/C1CCCCC1,Activity,SH-SY5Y [1],45.38 nmol/mg
same,Activity,[2],Non-toxic
same,inhibition,Acetylcholinesterase,inactive
same,Activity,SH-SY5Y [3],4.37 nmol/mg
same,Activity,SH-SY5Y [4],37.12 nmol/mg
same,inhibition,SH-SY5Y [5],inactive
same,Activity,SH-SY5Y [6],35.58 nmol/mg
same,Activity,SH-SY5Y [7],24.06 nmol/mg
same,inhibition (INH),SH-SY5Y [10],>50%
same,inhibition at 5 µM,SH-SY5Y [8],< 50%
same,Activity,SH-SY5Y [9],6.03 nmol/mg
OB(O)c1ccccc1 [PHENYLBORONIC ACID],Activity,SH-SY5Y [1],52.78 nmol/mg
same,Activity,[2],Non-toxic
same,inhibition,Acetylcholinesterase,inactive
same,Activity,SH-SY5Y [3],5.85 nmol/mg
same,Activity,SH-SY5Y [4],40.75 nmol/mg
same,inhibition,SH-SY5Y [5],inactive
same,Activity,SH-SY5Y [6],28.01 nmol/mg
same,Activity,SH-SY5Y [7],28.62 nmol/mg
same,inhibition at 5 µM,SH-SY5Y [8],< 50%
same,Activity,SH-SY5Y [9],4.85 nmol/mg
OB(O)c1ccc(C(F)(F)F)cc1,Activity,SH-SY5Y [1],73.23 nmol/mg
same,Activity,[2],Non-toxic
same,inhibition,Acetylcholinesterase,inactive
same,Activity,SH-SY5Y [3],5.76 nmol/mg
same,Activity,SH-SY5Y [4],45.36 nmol/mg
same,inhibition,SH-SY5Y [5],inactive
same,Activity,SH-SY5Y [6],26.59 nmol/mg
same,Activity,SH-SY5Y [7],23.32 nmol/mg
same,inhibition at 5 µM,SH-SY5Y [8],< 50%
same,Activity,SH-SY5Y [9],5.85 nmol/mg
CC1(C)OB(/C=C/c2ccccc2)OC1(C)C,Activity,SH-SY5Y [1],51.76 nmol/mg
same,Activity,[2],Non-toxic
same,inhibition,Acetylcholinesterase,inactive
same,Activity,SH-SY5Y [3],3.87 nmol/mg
same,Activity,SH-SY5Y [4],40.71 nmol/mg
same,inhibition,SH-SY5Y [5],inactive
same,Activity,SH-SY5Y [6],37.04 nmol/mg
same,Activity,SH-SY5Y [7],34.74 nmol/mg
same,inhibition at 5 µM,SH-SY5Y [8],< 50%
same,Activity,SH-SY5Y [9],4.89 nmol/mg
OB(O)/C=C/c1ccccc1 [STYRYLBORONIC ACID],Activity,SH-SY5Y [1],53.23 nmol/mg
same,Activity,[2],Non-toxic
same,inhibition,Acetylcholinesterase,inactive
same,Activity,[11],inactive
same,Activity,SH-SY5Y [3],4.6 nmol/mg
same,Activity,SH-SY5Y [4],42.22 nmol/mg
same,IC50,SH-SY5Y [12],8.08 µM
same,inhibition,SH-SY5Y [5],inactive
same,Activity,SH-SY5Y [6],30.62 nmol/mg
same,Activity,SH-SY5Y [7],21.84 nmol/mg
same,Activity,SH-SY5Y [9],4.25 nmol/mg
same,Activity,[13],inactive
CC1(C)OB(/C=C/c2cccc(C(F)(F)F)c2)OC1(C)C,Activity,SH-SY5Y [1],45.55 nmol/mg
same,Activity,[2],Non-toxic
same,inhibition,Acetylcholinesterase,inactive
same,Activity,SH-SY5Y [3],5.53 nmol/mg
same,Activity,SH-SY5Y [4],44.03 nmol/mg
same,inhibition,SH-SY5Y [5],inactive
same,Activity,SH-SY5Y [6],43.29 nmol/mg
same,Activity,SH-SY5Y [7],33.77 nmol/mg
same,inhibition (INH),SH-SY5Y [10],>50%
same,inhibition at 5 µM,SH-SY5Y [8],< 50%
same,Activity,SH-SY5Y [9],4.75 nmol/mg
COc1cc(/C=C/B2OC(C)(C)C(C)(C)O2)cc(OC)c1,Activity,SH-SY5Y [1],53.36 nmol/mg
same,Activity,[2],Non-toxic
same,inhibition,Acetylcholinesterase,inactive
same,Activity,SH-SY5Y [3],4.49 nmol/mg
same,Activity,SH-SY5Y [4],48.18 nmol/mg
same,inhibition,SH-SY5Y [5],inactive
same,Activity,SH-SY5Y [6],27.98 nmol/mg
same,Activity,SH-SY5Y [7],25.36 nmol/mg
same,inhibition at 5 µM,SH-SY5Y [8],< 50%
same,Activity,SH-SY5Y [9],4.53 nmol/mg
COc1cc(/C=C/B(O)O)cc(OC)c1,Activity,SH-SY5Y [1],74.75 nmol/mg
same,Activity,[2],Non-toxic
same,inhibition,Acetylcholinesterase,inactive
same,Activity,SH-SY5Y [3],4.7 nmol/mg
same,Activity,SH-SY5Y [4],42.79 nmol/mg
same,inhibition,SH-SY5Y [5],inactive
same,Activity,SH-SY5Y [6],32.03 nmol/mg
same,Activity,SH-SY5Y [7],23.11 nmol/mg
same,inhibition at 5 µM,SH-SY5Y [8],< 50%
same,Activity,SH-SY5Y [9],6.23 nmol/mg
OB(O)/C=C/c1ccc(C(F)(F)F)cc1,Activity,SH-SY5Y [1],38.23 nmol/mg
same,Activity,[2],Non-toxic
same,inhibition,Acetylcholinesterase,inactive
same,Activity,[11],inactive
same,Activity,SH-SY5Y [3],4.3 nmol/mg
same,Activity,SH-SY5Y [4],35.67 nmol/mg
same,IC50,SH-SY5Y [12],2.85 µM
same,inhibition,SH-SY5Y [5],inactive
same,Activity,SH-SY5Y [6],27.02 nmol/mg
same,Activity,SH-SY5Y [7],31.48 nmol/mg
same,inhibition (INH),SH-SY5Y [10],>50%
same,Activity,SH-SY5Y [9],4.47 nmol/mg
same,Activity,[13],inactive
OB(O)/C=C/c1ccc(F)cc1,Activity,SH-SY5Y [1],52.64 nmol/mg
same,Activity,[2],Non-toxic
same,inhibition,Acetylcholinesterase,inactive
same,Activity,SH-SY5Y [3],4.75 nmol/mg
same,Activity,SH-SY5Y [4],37.73 nmol/mg
same,inhibition,SH-SY5Y [5],inactive
same,Activity,SH-SY5Y [6],27.42 nmol/mg
same,Activity,SH-SY5Y [7],28.19 nmol/mg
same,inhibition (INH),SH-SY5Y [10],>50%
same,inhibition at 5 µM,SH-SY5Y [8],< 50%
same,Activity,SH-SY5Y [9],4.58 nmol/mg
CN1CC(=O)OB(/C=C/c2ccccc2)OC(=O)C1,Activity,SH-SY5Y [1],57.54 nmol/mg
same,Activity,[2],Non-toxic
same,inhibition,Acetylcholinesterase,inactive
same,IC50,Beta-secretase 1,136 µM
same,Activity,SH-SY5Y [3],6.11 nmol/mg
same,Activity,SH-SY5Y [4],41.96 nmol/mg
same,inhibition,SH-SY5Y [5],inactive
same,Activity,SH-SY5Y [6],39.38 nmol/mg
same,Activity,SH-SY5Y [7],35.2 nmol/mg
same,inhibition at 5 µM,SH-SY5Y [8],< 50%
same,Activity,SH-SY5Y [9],5.01 nmol/mg
COc1ccc(/C=C/B(O)O)cc1,Activity,SH-SY5Y [1],58.76 nmol/mg
same,Activity,[2],Non-toxic
same,inhibition,Acetylcholinesterase,inactive
same,Activity,SH-SY5Y [3],4.56 nmol/mg
same,Activity,SH-SY5Y [4],44.35 nmol/mg
same,inhibition,SH-SY5Y [5],inactive
same,Activity,SH-SY5Y [6],26.05 nmol/mg
same,Activity,SH-SY5Y [7],26.2 nmol/mg
same,inhibition at 5 µM,SH-SY5Y [8],< 50%
same,Activity,SH-SY5Y [9],6 nmol/mg
CC1(C)OB(/C=C/c2ccc(F)cc2F)OC1(C)C,Activity,SH-SY5Y [1],53.1 nmol/mg
same,Activity,[2],Non-toxic
same,inhibition,Acetylcholinesterase,inactive
same,Activity,SH-SY5Y [3],5.33 nmol/mg
same,Activity,SH-SY5Y [4],39.76 nmol/mg
same,inhibition,SH-SY5Y [5],inactive
same,Activity,SH-SY5Y [6],34.77 nmol/mg
same,Activity,SH-SY5Y [7],31.51 nmol/mg
same,inhibition at 5 µM,SH-SY5Y [8],< 50%
same,Activity,SH-SY5Y [9],6.06 nmol/mg
